# Entries after “also recorded” stand apart in the source; their conditions may differ. Where two headings read alike, the source gives them in different places. Square brackets hold non-standard residues; d marks the D form. Peptide text beside a SMILES is read from it. * marks the point of attachment. ξ: configuration not given here. Aoe(9ξ) = N[C@@H](CCCCCC(=O)C1CO1)C(=O)O; Asu = N[C@@H](CCCCCC(=O)O)C(=O)O; dPip = O=C(O)[C@H]1CCCCN1; NHOH = ON*
# Assays:
# HDAC6 = settings: previously reported; cited from earlier work
# HDAC1 = HDAC1 (Homo sapiens, UniProt Q13547); assay: biochemical; format: biochemical
# HDAC2 = HDAC2 (Homo sapiens, UniProt Q92769); format: biochemical
# PGRN [1] = assay: Intracellular PGRN ELISA in iPSC-derived NPCs; format: cell-based, human; settings: for Effect on PGRN (1 μM, NPCs) / PGRN induction (in words): 18 h treatment; for Effect on PGRN (1 μM, NPCs): intracellular PGRN; for EC50: Homo sapiens, read-out: EC50 of PGRN induction (dose-response curves); for PGRN induction (in words): Figure 2
# H3K9ac [2] = assay: Histone H3 acetylation Western blot in NPCs; format: cell-based, human
# HDACs 1–3 = assay: HDAC inhibition kinetics, summary statement over HDACs 1-3; format: biochemical; settings: summary over HDACs 1–3 (Tables 1 and S1)
# [3] = tested on: human iPSC-derived NPCs and Ngn2 neurons; assay: Cellular viability during PGRN experiments; format: cell-based; settings: 10 μM, 18 h treatment (Figure 2)
# PGRN [4] = settings: cited from earlier work
# H3K9ac [5] = settings: treatment at 10 μM; cited from earlier work
# [6] = molecular target: HDAC3 in combination with the DAD domain of NCoR2 (Homo sapiens, UniProt O15379); settings: read-out: Ki HDAC3; cited from earlier work
# [7] = kinetic model from progression curves
# Chain of HDAC2 (Q92769 9-376 limits assumed): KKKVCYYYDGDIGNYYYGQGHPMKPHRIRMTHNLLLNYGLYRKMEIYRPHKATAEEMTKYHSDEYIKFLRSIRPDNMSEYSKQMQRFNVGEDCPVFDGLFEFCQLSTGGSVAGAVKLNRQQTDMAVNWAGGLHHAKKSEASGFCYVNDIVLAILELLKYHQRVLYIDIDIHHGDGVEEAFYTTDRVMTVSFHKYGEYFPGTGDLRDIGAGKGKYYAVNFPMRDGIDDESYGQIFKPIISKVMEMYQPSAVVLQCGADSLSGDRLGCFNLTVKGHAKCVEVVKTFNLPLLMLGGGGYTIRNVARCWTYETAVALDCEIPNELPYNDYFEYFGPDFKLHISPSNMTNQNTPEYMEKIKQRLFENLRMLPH
# Chain of HDAC1 (Q13547 9-376 limits assumed): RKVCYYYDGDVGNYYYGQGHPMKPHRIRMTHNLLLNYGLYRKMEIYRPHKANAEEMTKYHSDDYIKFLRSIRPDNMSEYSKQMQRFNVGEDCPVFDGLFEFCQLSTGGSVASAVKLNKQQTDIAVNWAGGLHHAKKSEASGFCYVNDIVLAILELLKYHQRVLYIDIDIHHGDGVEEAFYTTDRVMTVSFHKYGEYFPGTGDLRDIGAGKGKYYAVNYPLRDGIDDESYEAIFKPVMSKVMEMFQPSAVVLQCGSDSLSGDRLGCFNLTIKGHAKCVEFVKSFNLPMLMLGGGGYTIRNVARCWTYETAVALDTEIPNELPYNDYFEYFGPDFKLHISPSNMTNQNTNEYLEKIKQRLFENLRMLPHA
# Chain of HDAC3 in combination with the DAD domain of NCoR2 (O15379 whole entry, the tested form may be a part): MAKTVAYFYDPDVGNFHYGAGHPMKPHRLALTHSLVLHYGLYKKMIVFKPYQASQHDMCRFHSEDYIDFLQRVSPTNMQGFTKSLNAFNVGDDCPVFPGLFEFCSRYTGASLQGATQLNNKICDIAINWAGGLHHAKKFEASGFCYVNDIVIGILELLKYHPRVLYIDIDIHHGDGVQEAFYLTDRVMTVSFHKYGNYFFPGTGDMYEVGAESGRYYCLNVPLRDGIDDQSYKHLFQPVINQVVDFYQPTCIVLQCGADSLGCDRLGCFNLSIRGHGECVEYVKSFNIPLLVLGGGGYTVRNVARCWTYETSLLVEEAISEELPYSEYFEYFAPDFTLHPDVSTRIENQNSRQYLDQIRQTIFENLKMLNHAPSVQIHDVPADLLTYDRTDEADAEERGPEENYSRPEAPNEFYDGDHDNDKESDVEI
# Chain of HDAC3 in combination with the DAD domain of NCoR2 (Q9Y618 395-489 partner limits assumed): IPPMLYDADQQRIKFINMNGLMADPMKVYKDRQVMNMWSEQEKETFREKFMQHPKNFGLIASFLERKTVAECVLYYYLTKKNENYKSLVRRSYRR
Compound,Mechanism of binding HDAC1 (HDAC1; [7]),Mechanism of binding HDAC2 (HDAC2; [7]),"Effect on PGRN (1 μM, NPCs) (PGRN [1]; NPCs)",EC50 (PGRN [1]; 18 h) [nM],PGRN induction (in words) (PGRN [1]; NPCs),"Effect on H3K9ac (1 μM, NPCs) (H3K9ac [2]; NPCs, 18 h treatment)",dissociative half-life (dis. t½) (HDACs 1–3),other results
"C[C@@H]1NC(=O)[C@H]2CCCN2C(=O)[C@H](CCCCCC(=O)[C@@H]2CO2)NC(=O)[C@@H](C)NC1=O [Compound S2, HC-toxin]",–,–,–,–,–,–,–,Mechanism of binding HDAC6 (HDAC6): fast-on/fast-off kinetics
"O=C(CCCCC[C@@H]1NC(=O)[C@H]2CCCCN2C(=O)[C@H](Cc2ccccc2)NC(=O)[C@H](Cc2ccccc2)NC1=O)C1CO1 (stereo partly shown) [Compound 6, trapoxin A] (cyclo(FF[dPip][Aoe(9ξ)]))",mechanism A kinetics,mechanism A kinetics,~2.4 fold incr.,22 ± 1,substantial increase in PGRN,~5.0 fold incr.,–,Ki (HDAC1): ~0.003 nM
"C/C=C1\NC(=O)[C@H]2CSSCC/C=C/[C@H](CC(=O)N[C@H](C(C)C)C(=O)N2)OC(=O)[C@H](C(C)C)NC1=O [Compound 10, romidepsin]","slow, tight-binding (mechanism B)",–,~4.1 fold incr.,–,substantial increase in PGRN,~2.3 fold incr.,over 20 min,Ki (HDAC1): ~0.02 nM; Cellular viability [3]: impaired cellular viability
"O=C(CCCCCCC(=O)Nc1ccccc1)NO [Compound 1, SAHA]",–,–,–,–,–,–,–,"Effect on PGRN (NPCs) (PGRN [4]; treatment at 10 μM): >2 fold incr.‡, [10]; Effect on H3K9ac (NPCs) (H3K9ac [5]): >20 fold incr.‡, [10]"
"CC(=O)Nc1ccc(C(=O)Nc2ccccc2N)cc1 [Compound 3, tacedinaline]",mechanism B type of slow-binding inhibition,–,–,> 20000,not able to affect PGRN production,–,–,"Mechanism of binding HDAC2 (HDAC2): mechanism B type of slow-binding inhibition; Effect on PGRN (NPCs) (PGRN [1]; treatment at 10 μM, NPCs, 18 h): Decrease^‡; Intensity of histone marks (H3 acetylation at K9 and K27) (H3K9ac [2]; Western blot, 18 h treatment, Figure 3 and S7): levels comparable to panobinostat; Effect on H3K9ac (NPCs) (H3K9ac [2]; treatment at 10 μM, NPCs, 18 h): ~18 fold incr^‡"
"Cc1[nH]c2ccccc2c1CCNCc1ccc(/C=C/C(=O)NO)cc1 [Compound 5, panobinostat]",–,"slow, tight-binding inhibition profiles (mechanism B); also recorded: effectively irreversible behavior",~2.3 fold incr.,200 ± 10,–,~36 fold incr.,over 20 min,–
trichostatin A [Compound S1],"slow, tight-binding inhibition profiles (mechanism B)","slow, tight-binding inhibition profiles (mechanism B)",–,–,–,–,over 20 min,–
"CCC(=O)CCCCC[C@@H]1NC(=O)[C@H]2CCCCN2C(=O)[C@H]([C@@H](C)CC)NC(=O)[C@H](Cc2cn(OC)c3ccccc23)NC1=O [Compound 8a, apicidin]",–,fast-on/fast-off binding kinetics,~1.7 fold incr.,790 ± 20,–,~3.3 fold incr.,–,Mechanism of binding HDAC1 (HDAC1): fast-on/fast-off binding kinetics
"O=C(CCCCCCC(=O)C(F)(F)F)Nc1ccccc1 [Compound 2, SATK]",–,–,No change,–,not able to affect PGRN production,No change,–,–
"CC(=O)Nc1ccc(C(=O)Nc2cc(-c3cccs3)ccc2N)cc1 [Compound 4, Cpd-60]",–,–,–,–,–,–,–,PGRN induction (in words) (PGRN [4]; human neuronal cell culture): not able to affect PGRN production
"O=C(CCCCC[C@@H]1NC(=O)[C@H]2CCCN2C(=O)[C@H](Cc2ccccc2)NC(=O)[C@H](Cc2ccccc2)NC1=O)NO [Compound 7c, TpxB^Asuha] (cyclo([Asu](NHOH)FF[dP]))",–,–,~2.2 fold incr.,–,substantial increase in PGRN,~6.3 fold incr.,over 20 min,Ki [6]: ~0.02 nM
